Data published in patent US12161719B2, “Method of enhancing the antimicrobial action of systemically administered antibiotics” (Koite Health Oy, priority 2019, dated 2024).

What was measured:
Assay type in all cases: cell-based
[1] = system: Streptococcus mutans biofilms; assay: 1 day biofilm test with Azithromycine, Indocyanine Green and light; conditions: 15 μg with Indocyanine Green
Method: A further series of tests was carried out for Streptococcus mutans biofilms using Azithromycine (15 μg) and Indocyanine Green using light at 100 J/cm^2. For 1 day biofilms, the CFU was on an average <1 after treatment with dual light of 405 nm and 810 nm, respectively (at ratios of 3:1 to 1:3), whereas for either 405 nm or 810 nm wavelength light alone, the CFU was on an average below 100 after 1 day. For Azithromycine and Indocyanine Green without light, the CFU was about 1E06 to 1E07 after 1 day.

[2] = Antibiotic susceptibility test (doxycycline disc on petri dishes, with or without light)
Text: Antibiotic Susceptibility Test Each test was repeated 3 times with identical treatment and growth parameters. The calculated CFU:s for 100 J/cm^2 treated doxycycline disc results are shown in table 1 and representing image of difference between treated and non-treated doxy petri dish are shown in FIG. 1. […] Starting from the left is the doxycycline inhibition effect in dark, in the middle the resulting petri dish with 405 nm and 810 nm exposure and on the right side the petri dish with 405 nm excitation is shown.

[3] = system: planktonic Streptococcus mutans; assay: Planktonic bacteria test, light activation of doxycycline
Text: FIG. 2 is a bar chart showing bacteria growth of Streptococcus mutans for four different treatments, illustrating the effect of light activation of doxycycline against planktonic Streptococcus mutans; FIG. 2 is a bar chart showing light activation of doxycycline at 405 nm in a planktonic bacteria test. […] 100 J of antibacterial blue light had minor reduction in CFU compared to non-exposed control.

[4] = system: Streptococcus mutans 4 day biofilm; assay: 4-day biofilm effectivity test, colony formation (CFU)
Text: FIG. 3 is a bar chart showing a comparison of the doxycycline effect with light excitations of 405 nm, dual-light (810 nm & 405 nm) and 370 nm to Streptococcus mutans colony formation in 4 day biofilm model; FIG. 4 is a bar chart showing the doxycycline effect against Streptococcus mutans 4 day biofilm for light excitation using a combination of light of 405 nm and 810 nm (“dual-light”) together with an ICG sensitizer, compared with light of 810 nm together with an ICG sensitizer (“doxy+aPDT”) and with 405 nm light without ICG sensitizer (“405”). A control of doxycycline is given as a reference; and […] is a bar chart showing a comparison of doxycycline effect with light excitations of […] on Streptococcus mutans colony formation in a 4-day biofilm effectivity test. FIG. 4 gives the CFU:s for Streptococcus mutans colonies on petri dishes after 4-day treatments, repeated 6 times with identical treatment and growth parameters, for four series of tests. The first (non-existent) bar represents the CFU:s for S. mutans colonies doxycycline which had been treated with doxycycline (30 μg) and dual light of 405 nm and 810 nm together with Indocyanine Green. The energy intensity of the light was 100 J/cm^2. […]

| Compound | CFU on an average ([1]; 405 nm light alone, 100 J/cm^2, 1 day) | CFU on an average ([1]; 810 nm light alone, 100 J/cm^2, 1 day) | CFU on an average ([1]; dual light 405 nm and 810 nm (ratios 3:1 to 1:3), 100 J/cm^2, 1 day biofilms) | Regression diameter ([2]; 44 J/cm^2 405 nm + 60 J/cm^2 810 nm) | Regression diameter ([2]; 83 J/cm^2 405 nm) | Regression diameter ([2]; no light, disc test, repeated 3 times) | bacteria growth ([3]; doxycycline without light) | bactericidal effect, bacteria killing ([3]; light activated at 405 nm) | improvement of antibacterial light effect with the addition of doxycycline ([4]; 370 nm light) | improvement of antibacterial light effect with the addition of doxycycline ([4]; 405 nm light) |
| --- | --- | --- | --- | --- | --- | --- | --- | --- | --- | --- |
| CC[C@H]1OC(=O)[C@H](C)[C@@H](O[C@H]2C[C@@](C)(OC)[C@@H](O)[C@H](C)O2)[C@H](C)[C@@H](O[C@@H]2O[C@H](C)C[C@H](N(C)C)[C@H]2O)[C@](C)(O)C[C@@H](C)CN(C)[C@H](C)[C@@H](O)[C@]1(C)O [Azithromycine] | below 100 | below 100 | < 1 | – | – | – | – | – | – | – |
| C[C@H]1c2cccc(O)c2C(=O)C2=C(O)[C@]3(O)C(=O)C(C(N)=O)=C(O)[C@@H](N(C)C)[C@@H]3[C@@H](O)[C@@H]21 [doxycycline] | – | – | – | 29,66666667 | 30,33333 | 26,33333 | ≥ 10^7 CFU | over 3 log | over 1.5 log | over 1.5 log |
